Experimental data reported in patent US20070060646A1, “Acylhydrazone derivatives and the use thereof in the inhibition, regulation and/or modulation of kinase signal transduction” (priority 2003, published 2007).

| SMILES | melting point |
| --- | --- |
| COc1cccc(CC(=O)N/N=C/c2ccc(O)cc2OC)c1 [compound 4] | 166 to 167 °C |
| O=C(Cc1ccccc1)N/N=C/c1ccc(O)c(F)c1 [compound 5] | 207 °C |
| COc1cc(O)ccc1/C=N/NC(=O)Cc1ccc(O)cc1 [compound 6] | 224 °C |
| COc1cc(O)ccc1/C=N/NC(=O)Cc1ccc(Cl)c(Cl)c1 [compound 7] | 232 to 233 °C |
| COc1cc(O)ccc1/C=N/NC(=O)Cc1cccc(C)c1 [compound 8] | 207 to 208 °C |
| COc1cc(O)ccc1/C=N/NC(=O)Cc1ccccc1C [compound 9] | 119 to 120 °C |
| COc1cc(O)ccc1/C=N/NC(=O)Cc1ccccc1Cl [compound 10] | 134 to 135 °C |
| COc1cc(O)ccc1/C=N/NC(=O)Cc1cccc(Cl)c1 [compound 11] | 121 to 122 °C |
| COc1cc(O)ccc1/C=N/NC(=O)Cc1ccc(F)cc1 [compound 12] | 184 to 185 °C |
| COc1cc(O)ccc1/C=N/NC(=O)Cc1ccc(F)cc1Cl [compound 13] | 242 to 243 °C |
| COc1cc(O)ccc1/C=N/NC(=O)Cc1cccc(F)c1 [compound 14] | 111 to 112 °C |
| COc1cccc(CC(=O)N/N=C/c2ccc(O)cc2)c1 [compound 15] | 162 to 163 °C |
| COc1cccc(CC(=O)N/N=C/c2c(C)cc(O)cc2C)c1 [compound 16] | 172 to 173 °C |
| COc1cccc(CC(=O)N/N=C/c2ccc(O)c(F)c2)c1 [compound 17] | 190 to 191 °C |
| COc1cccc(CC(=O)N/N=C(\C)c2ccc(O)cc2OC)c1 [compound 18] | 160 to 162 °C |
| COc1cc(O)ccc1/C=N/NC(=O)Cc1cc(O)cc(O)c1 [compound 19] | 246 °C (dec.) |
| O=C(Cc1cccc(F)c1)N/N=C/c1ccc(O)c(F)c1 [compound 20] | 193 to 194 °C |

| SMILES | melting point |
| --- | --- |
| COc1cccc(CC(=O)N/N=C/c2ccc(OC(C)=O)cc2OC)c1 [compound 21] | 147 to 148 °C |
| COc1cc(O)ccc1/C=N/NC(=O)Cc1cccc(C(F)(F)F)c1 [compound 22] | 203 to 204 °C |
| COc1cccc(CCC(=O)N/N=C/c2ccc(O)cc2OC)c1 [compound 23] | 159 to 160 °C |
| COc1cccc(CC(=O)N/N=C/c2ccc(O)cc2O)c1 [compound 24] | 205 to 206 °C |
| COc1cccc(OCC(=O)N/N=C/c2ccc(O)cc2OC)c1 [compound 25] | 173 to 174 °C |
| COc1cc(O)ccc1/C=N/NC(=O)Cc1cccc([N+](=O)[O-])c1 [compound 26] | 240 to 241 °C |
| COc1cccc(CC(=O)N/N=C/c2cc(Cl)ccc2O)c1 [compound 28] | 178 to 179 °C |
| COc1cccc(CC(=O)N/N=C/c2cc([N+](=O)[O-])ccc2O)c1 [compound 29] | 198 to 199 °C |
| COc1cc(O)ccc1/C=N/NC(=O)C(O)c1ccccc1 (stereo not shown) [compound 30] | 217 to 218 °C |
| COc1cc(O)ccc1/C=N/NC(=O)Cc1cccc(Br)c1 [compound 33] | 214 to 215 °C |
| COc1cccc(CC(=O)N/N=C(\C)c2ccc(O)cc2)c1 [compound 34] | 162 to 164 °C |
| COc1cc(O)ccc1/C=N/NC(=O)Cc1cccc(OS(C)(=O)=O)c1 [compound 35] | 132 °C |
| COc1cc(O)ccc1/C=N/NC(=O)Cc1cc(F)cc(F)c1 [compound 36] | 224 to 225 °C |
| Cc1cc(O)ccc1/C=N/NC(=O)Cc1cccc(O)c1 [compound 37] | 203 to 204 °C |
| CCOc1cc(O)ccc1/C=N/NC(=O)Cc1cccc(O)c1 [compound 38] | 190 to 192 °C |
| COc1cc(O)cc(C)c1/C=N/NC(=O)Cc1cccc(O)c1 [compound 40] | 194 to 195 °C |
| COc1cc(O)ccc1/C=N/NC(=O)Cc1ccccc1F [compound 41] | 213 to 215 °C |
